From ChEMBL document CHEMBL3734705, “Synthesis and in vitro cytotoxicity of novel C-12 substituted-14-deoxy-andrographolide derivatives as potent anti-cancer agents” (2015)
The source made the active and inactive calls. No cut-off for these calls is given here.

Tests used:
[1] = test system: MCF7; assay: Cytotoxicity against human MCF7 cells assessed as growth level at 10 uM after 48 hrs by SRB assay; format: functional
[2] = test system: NCI-H460; assay: Cytotoxicity against human NCI-H460 cells assessed as growth inhibition at 10 uM after 48 hrs by SRB assay; format: functional; settings: NCI-H460, 48 h, read-out: GI
[3] = test system: M14; assay: Cytotoxicity against human M14 cells assessed as growth inhibition at 10 uM after 48 hrs by SRB assay; format: functional; settings: M14, 48 h, read-out: GI
[4] = Cytotoxicity against human DU145 cells assessed as growth inhibition at 10 uM after 48 hrs by SRB assay; format: functional; settings: DU-145, 48 h, read-out: GI
[5] = Cytotoxicity against human HCT116 cells assessed as growth inhibition at 10 uM after 48 hrs by SRB assay; format: functional; settings: HCT-116, 48 h, read-out: GI
[6] = test system: NCI-H522; assay: Cytotoxicity against human NCI-H522 cells assessed as growth inhibition at 10 uM after 48 hrs by SRB assay; format: functional; settings: NCI-H522, 48 h, read-out: GI
[7] = test system: U-251; assay: Cytotoxicity against human U251 cells assessed as growth inhibition at 10 uM after 48 hrs by SRB assay; format: functional; settings: U-251, 48 h, read-out: GI
[8] = test system: SN12C; assay: Cytotoxicity against human SN12C cells assessed as growth level at 10 uM after 48 hrs by SRB assay; format: functional
[9] = Cytotoxicity against human SNB75 cells assessed as growth level at 10 uM after 48 hrs by SRB assay; format: functional, SNB-75
[10] = test system: T47D; assay: Cytotoxicity against human T47D cells assessed as growth inhibition at 10 uM after 48 hrs by SRB assay; format: functional; settings: read-out: GI
[11] = test system: SR; assay: Cytotoxicity against human SR cells assessed as growth level at 10 uM after 48 hrs by SRB assay; format: functional
[12] = test system: NCI-H226; assay: Cytotoxicity against human NCI-H226 cells assessed as growth level at 10 uM after 48 hrs by SRB assay; format: functional
[13] = test system: T47D; assay: Cytotoxicity against human T47D cells assessed as growth level at 10 uM after 48 hrs by SRB assay; format: functional
[14] = Cytotoxicity against human SNB19 cells assessed as growth inhibition at 10 uM after 48 hrs by SRB assay; format: functional; settings: SNB-19, 48 h, read-out: GI
[15] = Cytotoxicity against human RXF393 cells assessed as growth inhibition at 10 uM after 48 hrs by SRB assay; format: functional; settings: RXF 393, 48 h, read-out: GI
[16] = Cytotoxicity against human BT549 cells assessed as growth level at 10 uM after 48 hrs by SRB assay; format: functional, BT-549
[17] = Cytotoxicity against human OVCAR3 cells assessed as growth level at 10 uM after 48 hrs by SRB assay; format: functional, OVCAR-3
[18] = Cytotoxicity against human HCT15 cells assessed as growth inhibition at 10 uM after 48 hrs by SRB assay; format: functional; settings: HCT-15, 48 h, read-out: GI
[19] = Cytotoxicity against human SNB19 cells assessed as growth level at 10 uM after 48 hrs by SRB assay; format: functional, SNB-19
[20] = test system: SK-MEL-28; assay: Cytotoxicity against human SK-MEL-28 cells assessed as growth inhibition at 10 uM after 48 hrs by SRB assay; format: functional; settings: SK-MEL-28, 48 h, read-out: GI
[21] = test system: ACHN; assay: Cytotoxicity against human ACHN cells assessed as growth level at 10 uM after 48 hrs by SRB assay; format: functional
[22] = Cytotoxicity against human SF539 cells assessed as growth inhibition at 10 uM after 48 hrs by SRB assay; format: functional; settings: SF-539, 48 h, read-out: GI
[23] = test system: A498; assay: Cytotoxicity against human A498 cells assessed as growth inhibition at 10 uM after 48 hrs by SRB assay; format: functional; settings: A498, 48 h, read-out: GI
[24] = test system: SK-MEL-28; assay: Cytotoxicity against human SK-MEL-28 cells assessed as growth level at 10 uM after 48 hrs by SRB assay; format: functional
[25] = Cytotoxicity against human HCT116 cells assessed as growth level at 10 uM after 48 hrs by SRB assay; format: functional, HCT-116
[26] = test system: Malme-3M; assay: Cytotoxicity against human MALME-3M cells assessed as growth inhibition at 10 uM after 48 hrs by SRB assay; format: functional; settings: read-out: GI
[27] = test system: EKVX; assay: Cytotoxicity against human EKVX cells assessed as growth inhibition at 10 uM after 48 hrs by SRB assay; format: functional
[28] = Cytotoxicity against human HOP92 cells assessed as growth inhibition at 10 uM after 48 hrs by SRB assay; format: functional; settings: HOP-92, 48 h, read-out: GI
[29] = Cytotoxicity against human DU145 cells assessed as growth level at 10 uM after 48 hrs by SRB assay; format: functional, DU-145
[30] = Cytotoxicity against human Caki1 cells assessed as growth level at 10 uM after 48 hrs by SRB assay; format: functional, CAKI-1
[31] = test system: KM12; assay: Cytotoxicity against human KM12 cells assessed as growth level at 10 uM after 48 hrs by SRB assay; format: functional
[32] = Cytotoxicity against human NCI-ADR-RES cells assessed as growth inhibition at 10 uM after 48 hrs by SRB assay; format: functional; settings: read-out: GI
[33] = Cytotoxicity against human MOLT4 cells assessed as growth level at 10 uM after 48 hrs by SRB assay; format: functional, MOLT-4
[34] = test system: NCI-H460; assay: Cytotoxicity against human NCI-H460 cells assessed as growth level at 10 uM after 48 hrs by SRB assay; format: functional
[35] = test system: MDA-MB-231; assay: Cytotoxicity against human MDA-MB-231 cells assessed as growth level at 10 uM after 48 hrs by SRB assay; format: functional
[36] = Cytotoxicity against human UO31 cells assessed as growth inhibition at 10 uM after 48 hrs by SRB assay; format: functional; settings: UO-31, 48 h, read-out: GI
[37] = Cytotoxicity against human BT549 cells assessed as growth inhibition at 10 uM after 48 hrs by SRB assay; format: functional; settings: BT-549, 48 h, read-out: GI
[38] = test system: K562; assay: Cytotoxicity against human K562 cells assessed as growth inhibition at 10 uM after 48 hrs by SRB assay; format: functional; settings: K562, 48 h, read-out: GI
[39] = test system: KM12; assay: Cytotoxicity against human KM12 cells assessed as growth inhibition at 10 uM after 48 hrs by SRB assay; format: functional; settings: KM12, 48 h, read-out: GI
[40] = test system: SK-MEL-5; assay: Cytotoxicity against human SK-MEL-5 cells assessed as growth inhibition at 10 uM after 48 hrs by SRB assay; format: functional; settings: SK-MEL-5, 48 h, read-out: GI
[41] = Cytotoxicity against human OVCAR8 cells assessed as growth inhibition at 10 uM after 48 hrs by SRB assay; format: functional; settings: OVCAR-8, 48 h, read-out: GI
[42] = test system: A549; assay: Cytotoxicity against human A549 cells assessed as growth level at 10 uM after 48 hrs by SRB assay; format: functional

With `C=C1CC[C@@H]2[C@](C)(COC(C)=O)[C@H](OC(C)=O)CC[C@@]2(C)[C@@H]1C/C=C1/C(=O)OC[C@H]1OC(C)=O` the Activity [1] was 22.9%, the inhibition of growth at 10 µM [2] was 1.96% and the inhibition of growth at 10 µM [3] was 64.6%. It also gave an inhibition of growth at 10 µM [4] of 49.1%, an inhibition of growth at 10 µM [5] of 37.3% and an inhibition of growth at 10 µM [6] of 41.6%. The inhibition of growth at 10 µM [7] was 46%, the Activity [8] was 33.42% and the Activity [9] was 44.87%. It also gave an inhibition of growth at 10 µM [10] of 57.2%, an Activity [11] of 5.73% and an Activity [12] of 23.61%. For the same compound, the Activity [13] was 42.77%, the inhibition of growth at 10 µM [14] was 17% and the inhibition of growth at 10 µM [15] was 7.35%. The Activity [16] was 27.38%, the Activity [17] was -21.32% and the inhibition of growth at 10 µM [18] was 23%. The Activity [19] was 82.96%, the inhibition of growth at 10 µM [20] was 62.2% and the Activity [21] was 19.55%. For the same compound, the inhibition of growth at 10 µM [22] was 91.5%, the inhibition of growth at 10 µM [23] was 9.43% and the Activity [24] was 37.78%. For the same compound, the Activity [25] was -37.34%, the inhibition of growth at 10 µM [26] was 22.3% and the “growth inhibition (GI)” value [27] was “inactive”. For the same compound, the inhibition of growth at 10 µM [28] was 28.1%, the Activity [29] was 50.88% and the Activity [30] was 81.51%. It also gave an Activity [31] of 52.83%, an inhibition of growth at 10 µM [32] of 75% and an Activity [33] of -6.05%. For the same compound, the Activity [34] was 98.04%, the Activity [35] was 95.84% and the inhibition of growth at 10 µM [36] was 37.2%. For the same compound, the inhibition of growth at 10 µM [37] was 72.6%, the inhibition of growth at 10 µM [38] was 88.9% and the inhibition of growth at 10 µM [39] was 47.2%. For the same compound, the inhibition of growth at 10 µM [40] was 43.8%, the inhibition of growth at 10 µM [41] was 72.9% and the Activity [42] was 85.77%.
With `C=C1CC[C@@H]2[C@](C)(COC(C)=O)[C@H](OC(C)=O)CC[C@@]2(C)[C@@H]1CC(Nc1ccc(S(=O)(=O)NC(C)=O)cc1)C1=CCOC1=O` (mixture of isomers) the Activity [1] was -33.6%, the Activity [8] was 1.94% and the Activity [9] was 26.28%. For the same compound, the Activity [11] was 2.08%, the Activity [12] was -52.34% and the Activity [13] was -3.67%. It also gave an Activity [16] of -62.63%, an Activity [17] of -87.71% and an Activity [19] of 23.04%. The Activity [21] was -63.23%, the Activity [24] was -36.62% and the Activity [25] was -63.92%. It also gave an Activity [29] of 0.37%, an Activity [30] of 30.25% and an Activity [31] of -34%. The Activity [33] was 0.12%, the Activity [34] was 5.29% and the Activity [35] was -38.71%. For the same compound, the Activity [42] was 27.95%.
Work on `C=C1CC[C@@H]2[C@](C)(CO)[C@H](O)CC[C@@]2(C)[C@@H]1C/C=C1/C(=O)OC[C@H]1O` [ANDROGRAPHOLIDE] yielded an Activity [1] of 57.55%, an inhibition of growth at 10 µM [2] of 2.02% and an inhibition of growth at 10 µM [3] of 15.1%. For the same compound, the inhibition of growth at 10 µM [4] was 19.9%, the inhibition of growth at 10 µM [5] was 40% and the inhibition of growth at 10 µM [6] was 82.9%. For the same compound, the inhibition of growth at 10 µM [7] was 24.2%, the Activity [8] was 81.73% and the Activity [9] was 61.95%. The inhibition of growth at 10 µM [10] was 12.2%, the Activity [11] was 79.53% and the Activity [12] was 91.74%. The Activity [13] was 87.76%, the inhibition of growth at 10 µM [14] was 12% and the Activity [16] was 87.11%. It also gave an Activity [17] of 59.17%, an inhibition of growth at 10 µM [18] of 38.1% and an Activity [19] of 88.03%. The inhibition of growth at 10 µM [20] was 4.54%, the Activity [21] was 89.75% and the inhibition of growth at 10 µM [22] was 16.6%. The inhibition of growth at 10 µM [23] was 12.2%, the Activity [24] was 95.46% and the Activity [25] was 60.01%. For the same compound, the inhibition of growth at 10 µM [26] was 0.22%, the “growth inhibition (GI)” value [27] was “inactive” and the Activity [29] was 80.06%. The Activity [30] was 96.7%, the Activity [31] was 80.24% and the inhibition of growth at 10 µM [32] was 16.5%. For the same compound, the Activity [33] was 98.11%, the Activity [34] was 97.98% and the Activity [35] was 106.75%. It also gave an inhibition of growth at 10 µM [36] of 10.4%, an inhibition of growth at 10 µM [37] of 12.9% and an inhibition of growth at 10 µM [38] of 34.5%. For the same compound, the inhibition of growth at 10 µM [39] was 19.8%, the inhibition of growth at 10 µM [40] was 22.7% and the inhibition of growth at 10 µM [41] was 15.5%. For the same compound, the Activity [42] was 87.82%.
With `C=C1CC[C@@H]2[C@](C)(COC(C)=O)[C@H](OC(C)=O)CC[C@@]2(C)[C@@H]1CC(Sc1ccccc1)C1=CCOC1=O` (mixture of isomers) the Activity [1] was 2.14%, the Activity [8] was 1.3% and the Activity [9] was 86.98%. The Activity [11] was 2.9%, the Activity [12] was -9.88% and the Activity [13] was 7.94%. The Activity [16] was -22.62%, the Activity [17] was -84.17% and the Activity [19] was 51.79%. For the same compound, the Activity [21] was -13.74%, the Activity [24] was 6.34% and the Activity [25] was -34.58%. It also gave an Activity [29] of 16.39%, an Activity [30] of 90.6% and an Activity [31] of 18.58%. It also gave an Activity [33] of -3.93%, an Activity [34] of 21.71% and an Activity [35] of 7.4%. It also gave an Activity [42] of 26.59%.
